Laboratory results from patent US20250034165A1, “COMPOUND CONTAINING CYCLOALKYL OR HALOALKYL” (CHIA TAI TIANQING PHARMACEUTICAL GROUP CO., LTD., priority 2021, published 2025).

Columns and labels:
[1] = system: PC-9 EGFR-Del19-T790M-C797S cells; test: Inhibition of proliferation of PC-9-EGFR (Del19 T790M C797S) cells, CCK-8; assay type: cell-based; conditions: 72 h, read-out: PC-9-EGFR (Del19 T790M C797S) cell inhibitory activity IC50
Procedure, shortened: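 Cells seeded at 2×10^4 cells/mL were treated 72 h with compound at 1000 nM-0.06 nM final, in replicate wells. CCK-8 absorbance at 450 nm after 2 h gave inhibition rate relative to negative control and blank. IC50 from four-parameter fit against log concentration.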

[2] = target: EGFR (d746-750 (d19)/T790M) (Homo sapiens (Human), UniProt P00533, DEL746-750/T790M); test: Inhibitory activity for EGFR (d746-750 (d19)/T790M) kinase; assay type: biochemical; conditions: ATP 5 μM
Procedure, shortened: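 Recombinant EGFR d746-750/T790M (0.003 ng/μL final) preincubated 30 min with compound (10 to 0.0024 nM, 4-fold steps), then 5 μM ATP and 0.1 μM ULight-poly GT added for 2 h at room temperature. EDTA stop, Eu-anti-phosphotyrosine TR-FRET read (665 nm); IC50 by four-parameter fit.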

[3] = In vitro stability in liver microsomes; assay type: in vitro ADME; conditions: Human liver microsome
Description: 300 μL of the final incubation system contains 30 μL of liver microsomes (protein concentration: 0.15 mg/mL), 30 μL of NADPH+MgCl2, 3 μL of the test compound (in acetonitrile), and 237 μL of PBS buffer (pH 7.4). The proportion of the organic solvent (acetonitrile) was 1%. Samples were prepared in duplicate of 0.3 mL for each species (e.g., human or mouse liver microsomes). Tubes each containing 270 μL of a mixed solution of substrate and enzyme […] were pre-incubated at 37° C. for 5 min. 30 μL of NADPH+MgCl2 was added and the mixture was mixed. 50 μL of the mixture was taken at 0 min, 15 min, 30 min, and 60 min, and 300 μL of glacial acetonitrile containing an internal standard was added to terminate the reaction.
50 μL of the incubated sample was added with 300 μL of glacial acetonitrile containing an internal standard (20 ng/mL diazepam) for precipitation. The mixture was vortexed for 5 min, and centrifuged (12,000 rpm, 4° C.) for 10 min. 75 μL of supernatant was taken and diluted with 75 μL of ultrapure water. After being homogeneously mixed, 0.5 μL of the resulting sample was injected for analysis.

[4] = system: BAF3-EGFR (L858R/T790M/C797S) cells; test: Inhibition of proliferation of BAF3-EGFR (L858R/T790M/C797S) cells, CCK-8; assay type: cell-based; conditions: Ba/F3 EGFR, 72 h, read-out: BAF3(EGFR T790M L858R C797S) cell inhibitory activity IC50
Procedure, shortened: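 BaF3 EGFR L858R/T790M/C797S cells seeded at 1.5×10^5 cells/mL in RPMI + 10% FBS, 37 °C, compound added after overnight, duplicates. Viability by CCK-8; % inhibition vs untreated and blank, IC50 by four-parameter fit.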

NCI-H1975(L858R T790M) = test: Nude mouse subcutaneous xenograft tumor model of NCI-H1975 cells; assay type: in vivo, nude mice; conditions: once a day, 14 days
Text: Evaluation on drug effect on nude mouse subcutaneous xenograft tumor model of NCI-H1975 cells: NCI-H1975 cells were inoculated subcutaneously in the right axilla of SPF-grade female nude mice (source: Jiangsu Huachuang Sino Pharmaceutical Technology Co., Ltd.) at 1×10^6 cells/mouse. When the mean tumor volume reached about 200 mm^3, the animals were grouped.
(§1) The day of grouping was defined as day 0, and intragastric administration was started on day 0 and performed once a day. The tumor volume was measured 2-3 times a week, meanwhile, the mice were weighed and the data were recorded; the general behavior of the mice was observed and recorded every day. After the experiment was completed, the tumors were removed, weighed, and photographed.
(§2) Tumor volume TV (mm^3)=½×(a×b^2),
(§3) Relative tumor volume RTV=TVt/TV0,
(§4) Relative tumor proliferation rate T/C (%)=(TRTV/CRTV)×100%,
(§5) Tumor growth inhibition rate TGI (%)=(1−TW/TW0)×100%;

[5] = system: BAF3-EGFR (del19/T790M/C797S) cells; test: Inhibition of proliferation of BAF3-EGFR (Del19/T790M/C797S) cells, CCK-8; assay type: cell-based; conditions: Ba/F3 EGFR-Del19/T790M/C797S, 72 h, read-out: BAF3(EGFR T790M Del19 C797S) cell inhibitory activity IC50
Procedure, shortened: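 Cells seeded at 1.0×10^5 cells/mL in RPMI + 10% FBS, cultured overnight at 37° C, 5% CO2, then compound added in duplicate wells, with untreated cells as negative control. Inhibition rate calculated against negative-control and blank means. IC50 obtained from four-parameter fit of inhibition versus log concentration.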

[6] = target: EGFR (d746-750/T790M/C797S) (Homo sapiens (Human), UniProt P00533, C797S/DEL746-750/T790M); test: Inhibitory activity for EGFR (d746-750/T790M/C797S) kinase; assay type: biochemical; conditions: ATP 5 μM; read-out: EGFR(d19/T790M/C797S) (IC50)
Procedure, shortened: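 EGFR d746-750/T790M/C797S (0.03 ng/μL final) preincubated 30 min with compound (10 nM–0.0024 nM, 4-fold, 7 points). Reaction with 5 μM ATP and 0.1 μM ULight-poly GT, 2 h at room temperature; EDTA stop, Eu-anti-phosphotyrosine TR-FRET read at 665 nm, IC50 by four-parameter fit.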

[7] = In vivo pharmacokinetics in ICR mice; conditions: mouse, plasma, PO, 10 mg/kg intragastric
Procedure, shortened: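 ICR mice (18–20 g, 9 per group, fasted 12 h) received 10 mg/kg of compound intragastrically. Orbital blood was taken from 0 min to 24 h and EDTA-K2 plasma was prepared. Plasma was precipitated with acetonitrile containing diazepam as internal standard and analysed by LC/MS/MS.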

[8] = system: PC9-EGFR (del19-T790M-C797S); test: Nude mouse subcutaneous xenograft tumor model of PC9-EGFR (del19-T790M-C797S) tumor mass; assay type: in vivo, nude mice
Text: Evaluation on drug effect on nude mouse subcutaneous xenograft tumor model of PC9-EGFR (del19-T790M-C797S) tumor mass: PC9-EGFR (del19-T790M-C797S) cells were inoculated subcutaneously in the right axilla of SPF-grade female nude mice (source: Laboratory Animal Operation Department, Shanghai Institute for Biomedical and Pharmaceutical Technologies) at 1×10^7 cells/mouse for the F1 generation. The nude mouse tumor tissue of the F1 generation was taken out, and the necrotic tissue was removed. Then the rest of the tumor tissue was cut into tumor masses of about 1.5-2 mm and inoculated subcutaneously in the right axilla of the nude mice. When the mean tumor volume reached about 200 mm^3, the animals were grouped.
as §1, §2, §3, §4, §5

[9] = 15 mpk*4 + 10 mpk*25 (i.g), 29 days

EGFR (d746-750/T790M/C797S), sequence (P00533 other isoform, or with tags, fused parts or gaps T790M/C797S/del 1-694/del 746-750 limits assumed): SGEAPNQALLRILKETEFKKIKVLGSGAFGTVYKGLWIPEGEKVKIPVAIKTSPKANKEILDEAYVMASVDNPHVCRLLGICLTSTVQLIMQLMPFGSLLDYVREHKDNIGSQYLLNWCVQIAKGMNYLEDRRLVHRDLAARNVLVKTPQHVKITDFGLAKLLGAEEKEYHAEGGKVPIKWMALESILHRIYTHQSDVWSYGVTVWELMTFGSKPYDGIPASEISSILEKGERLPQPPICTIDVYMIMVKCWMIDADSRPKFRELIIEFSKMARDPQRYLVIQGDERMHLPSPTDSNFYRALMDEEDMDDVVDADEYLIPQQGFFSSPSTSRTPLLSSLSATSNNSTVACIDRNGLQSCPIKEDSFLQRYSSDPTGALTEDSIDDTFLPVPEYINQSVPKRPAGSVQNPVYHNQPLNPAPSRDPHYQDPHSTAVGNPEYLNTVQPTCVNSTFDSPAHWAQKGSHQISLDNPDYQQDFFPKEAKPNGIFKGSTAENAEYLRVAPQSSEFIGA
EGFR (d746-750 (d19)/T790M), sequence (P00533 other isoform, or with tags, fused parts or gaps T790M/del 1-668/del 746-750 limits assumed): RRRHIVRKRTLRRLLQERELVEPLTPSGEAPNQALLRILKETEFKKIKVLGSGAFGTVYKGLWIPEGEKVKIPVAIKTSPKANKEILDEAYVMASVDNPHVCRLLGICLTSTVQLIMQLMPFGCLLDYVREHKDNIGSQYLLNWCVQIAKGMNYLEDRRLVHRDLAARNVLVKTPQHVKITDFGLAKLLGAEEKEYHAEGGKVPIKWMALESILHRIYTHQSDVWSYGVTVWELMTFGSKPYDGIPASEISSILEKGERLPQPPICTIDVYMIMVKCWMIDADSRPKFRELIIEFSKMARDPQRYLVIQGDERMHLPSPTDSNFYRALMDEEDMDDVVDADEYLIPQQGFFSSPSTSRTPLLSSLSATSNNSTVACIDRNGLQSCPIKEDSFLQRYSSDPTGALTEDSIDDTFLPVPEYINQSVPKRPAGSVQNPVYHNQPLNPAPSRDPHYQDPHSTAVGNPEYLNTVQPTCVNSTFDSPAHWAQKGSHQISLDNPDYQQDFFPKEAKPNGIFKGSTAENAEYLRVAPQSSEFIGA

IC50 [1] | IC50 [2] | Stability in liver microsomes (residual %, T = 60 min) [3] | IC50 [4] | IC50 [5] | IC50 [6] | Compound | further results
< 50 nM | 0.091 nM | 84.54% | < 5 nM |  |  | Cc1cc2cc(n1)-c1cnn(C)c1OCCC[C@@H](C1CC1)CN1/C(=N/C2=O)Nc2ccc(N[C@H]3CC[C@@H](N(C)C)CC3)cc21 [Example 99] | 
< 50 nM | 0.013 nM |  | < 5 nM | < 1 nM | 0.018 nM | Cc1cc2cc(n1)-c1cnn(C)c1OCCC[C@@H](C1CC1)CN1/C(=N/C2=O)Nc2ccc(N(C)CCN(C)C)cc21 [Example 45] | Tumor growth inhibition % (tumor weight, d 14) (NCI-H1975(L858R T790M); 10 mpk (i.g)): 76.2% (tumor; Tumor growth inhibition % (volume, d 12) (NCI-H1975(L858R T790M); 10 mpk (i.g)): 76.6%
< 50 nM |  | 71.24% | < 5 nM |  | 0.063 nM | Cc1cc2cc(n1)-c1cnn(C)c1OCCC[C@@H](C1CC1)CN1/C(=N/C2=O)Nc2ccc(NC(=O)CCN(C)C)cc21 [Example 112] | 
 | 0.011 nM | 64.73% | < 5 nM | < 1 nM | 0.013 nM | Cc1cc2cc(n1)-c1cnn(C)c1OCCC[C@@H](C1CC1)CN1/C(=N/C2=O)Nc2cc(NCCN3CCCC3)ccc21 [Example 72] | 
< 50 nM | 0.017 nM | 96.11% | < 5 nM | < 1 nM | 0.027 nM | Cc1cc2cc(n1)-c1cnn(C)c1OCCC[C@@H](C1CC1)CN1/C(=N/C2=O)Nc2cc(NC3CCN(C(C)C)CC3)ccc21 [Example 47] | 
< 50 nM |  |  | < 5 nM | < 1 nM |  | Cc1cc2cc(n1)-c1cnn(C)c1OCCC[C@@H](C1CC1)CN1/C(=N/C2=O)Nc2ccc(N[C@@H](C)CN(C)C)cc21 [Example 66] | Tumor growth inhibition % (tumor weight, d 14) (NCI-H1975(L858R T790M); 5 mpk (i.g)): 73.5% (tumor; Tumor growth inhibition % (volume, d 12) (NCI-H1975(L858R T790M); 5 mpk (i.g)): 71.3%; Tumor growth inhibition % (tumor weight, d 14) (NCI-H1975(L858R T790M); 10 mpk (i.g)): 87.5% (tumor; Tumor growth inhibition % (volume, d 12) (NCI-H1975(L858R T790M); 10 mpk (i.g)): 86.2%; AUC(0-inf) [7]: 2200 ng·h/mL; AUC(0-t) ([7]; read-out: AUC(0-t)): 2040 ng·h/mL; Cmax ([7]; read-out: Cmax): 143 ng/mL; MRT last ([7]; read-out: MRT(0-t)): 8.26 h; Tmax ([7]; read-out: Tmax): 6 h; half-life ([7]; read-out: T½ (converted)): 5.98 h; Tumor growth inhibition % (tumor weight, d 29) [8, 9]: 95.8% (tumor weight, d 29); Tumor growth inhibition % (volume, d 27) [8, 9]: 94.3% (volume, d 27); Tumor growth inhibition % (tumor weight, d 29) ([8]; 30 mpk*4 (i.g), 4 days): 56.5%; Tumor growth inhibition % (volume, d 27) ([8]; 30 mpk*4 (i.g), 4 days): 60.0% (volume, d 27)
< 50 nM | 0.092 nM | 82.55% | < 5 nM |  |  | Cc1cc2cc(n1)-c1cnn(C)c1OCCC[C@@H](C1CC1)CN1/C(=N/C2=O)Nc2ccc(N[C@H]3CC[C@H](N(C)C)CC3)cc21 [Example 100] | 
< 50 nM | 0.017 nM | 95.68% | < 5 nM | < 1 nM | 0.027 nM | CCN1CCC(Nc2ccc3c(c2)N/C2=N\C(=O)c4cc(C)nc(c4)-c4cnn(C)c4OCCC[C@@H](C4CC4)CN23)CC1 [Example 48] | 
< 50 nM | 0.0081 nM | 80.24% | < 5 nM | < 1 nM | 0.012 nM | Cc1cc2cc(n1)-c1cnn(C)c1OCCC[C@@H](C1CC1)CN1/C(=N/C2=O)Nc2cc(NCCCN(C)C)ccc21 [Example 44] | 
< 50 nM |  | 83.66% | < 5 nM |  | 0.073 nM | Cc1cc2cc(n1)-c1cnn(C)c1OCCC[C@@H](C1CC1)CN1/C(=N/C2=O)Nc2cc(N[C@H]3C[C@H](N(C)C)C3)ccc21 [Example 126] | 
< 50 nM | 0.014 nM | 94.30% | < 5 nM |  | 0.023 nM | Cc1cc2cc(n1)-c1cnn(C)c1OCCC[C@@H](C1CC1)CN1/C(=N/C2=O)Nc2cc(NC3CCN(C)CC3)ccc21 [Example 10] | 
< 50 nM |  | 95.64% | < 5 nM |  | 0.08 nM | Cc1cc2cc(n1)-c1cnn(C)c1OCCC[C@@H](C1CC1)CN1/C(=N/C2=O)Nc2cc(N[C@H]3CC[C@@H](N(C)C)C3)ccc21 [Example 131] | 
